One assay relates to FP receptor. To be noted: cited from earlier work.
Assay [1] has as its system prostaglandin receptor TP. To be noted: 10 μM; cited from earlier work.
Assay [2] has as its target T1, prostaglandin receptor DP (Homo sapiens, UniProt Q13258).
T1 sequence (Q13258 1-359): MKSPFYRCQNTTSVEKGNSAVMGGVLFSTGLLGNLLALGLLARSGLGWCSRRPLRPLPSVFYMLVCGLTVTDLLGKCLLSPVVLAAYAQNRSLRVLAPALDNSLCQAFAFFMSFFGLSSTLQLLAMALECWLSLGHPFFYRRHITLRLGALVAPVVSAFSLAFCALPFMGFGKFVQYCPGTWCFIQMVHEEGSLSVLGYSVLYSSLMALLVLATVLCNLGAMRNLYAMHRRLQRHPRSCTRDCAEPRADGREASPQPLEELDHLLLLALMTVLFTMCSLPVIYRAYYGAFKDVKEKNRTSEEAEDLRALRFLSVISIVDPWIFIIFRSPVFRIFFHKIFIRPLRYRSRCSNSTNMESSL
To be noted: 10 μM; cited from earlier work.

Assay [3] has as its target prostaglandin receptor EP2 (Homo sapiens, UniProt P43116). To be noted: 10 μM; cited from earlier work.
In assay [4] the target is prostaglandin receptor EP4 (Homo sapiens, UniProt P35408). To be noted: 10 μM; cited from earlier work.
Sequence of prostaglandin receptor EP4 (P35408 whole entry): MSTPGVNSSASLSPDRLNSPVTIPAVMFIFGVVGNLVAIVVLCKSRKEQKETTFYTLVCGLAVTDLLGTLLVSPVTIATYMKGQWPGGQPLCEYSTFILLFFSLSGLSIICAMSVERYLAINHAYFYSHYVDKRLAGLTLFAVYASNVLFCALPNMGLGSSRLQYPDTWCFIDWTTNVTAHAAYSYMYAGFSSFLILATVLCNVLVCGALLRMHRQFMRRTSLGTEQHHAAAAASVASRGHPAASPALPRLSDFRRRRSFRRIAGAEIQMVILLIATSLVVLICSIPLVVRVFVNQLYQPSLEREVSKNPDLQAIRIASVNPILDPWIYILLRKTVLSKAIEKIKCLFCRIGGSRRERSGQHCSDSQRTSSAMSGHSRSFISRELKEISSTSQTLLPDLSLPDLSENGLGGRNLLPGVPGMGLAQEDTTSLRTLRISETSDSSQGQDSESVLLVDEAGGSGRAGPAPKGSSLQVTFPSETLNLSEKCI
The subject of assay [5] is Ishikawa cells. Briefly: Proliferation assay, BrdU incorporation ELISA. The class given is cell-based, human. To be noted: for basal proliferation (BrdU incorporation): no PGF2α. Here is the method: Proliferation of Ishikawa cells was determined using a BrdU incorporation ELISA (Roche Diagnostics GmbH, Mannheim, Germany). Briefly, Ishikawa cells were seeded at 5×10^3 cells per well in a 96-well plate and allowed to adhere overnight. Cells were next starved for 24 hr with indomethacin 1.5 μg/ml before 24 h PGF2α treatment (1 nM-1 μM) in serum-free medium containing indomethacin. Inhibitors were added to cells for 60 min before PGF2α with the control well receiving the same concentration of vehicle. Following 24 h treatment, cells were labelled with BrdU for 4 h, then fixed and assayed for BrdU incorporation using standard immunohistochemical techniques. Results were plotted as percentages of untreated cells.
A general note: Uptake of a labelled nucleoside into DNA is a usual measure of proliferation.

Another assay deals with human endometrium. Briefly: Total inositol phosphate (InsP) assay in human endometrium. It counts as cell-based. Here is the method:
(§1) PGF2α stimulation of total InsP production was as described (21). Briefly, tissue samples or Ishikawa cells were incubated with inositol free DMEM containing 1% dialyzed heat-inactivated FCS and 0.5 μCi/well myo-[^3H]inositol (Amersham Pharmacia Biotech) for 48 hours. Medium was removed, and cells washed with 1 ml buffer (140 mM NaCl, 20 mM HEPES, 4 mM KCl, 8 mM glucose, 1 mM MgCl2, 1 mM CaCl2, 1 mg/ml bovine serum albumin) containing 10 mM LiCl. Cells were then incubated for 1 hour at 37° C. in 1 ml buffer with or without inhibitors. Following incubation agonist was added at the required concentration and cells incubated for 1 hour. Reactions were terminated by the removal of agonist and the addition of 500 μl ice cold 10 mM formic acid, which was incubated for 30 minutes at 4° C. Total [^3H] inositol phosphates was separated from the formic acid cell extracts on AG 1-X8 anion exchange resin (Bio-Rad) and eluted with a 1 M ammonium formate/0.1 M formic acid solution. The associated radioactivity was determined by liquid scintillation counting and plotted relative to protein concentrations determined using the modified Lowry method.

A further assay has as its target T2, PGES (Homo sapiens, UniProt O14684).
T2 sequence (O14684 1-152): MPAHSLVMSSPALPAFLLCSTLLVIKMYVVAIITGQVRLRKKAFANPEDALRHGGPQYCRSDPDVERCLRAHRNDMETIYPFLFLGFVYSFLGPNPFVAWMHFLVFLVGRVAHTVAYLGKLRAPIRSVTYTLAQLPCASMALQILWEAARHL
To be noted: read-out: IC50 for inhibition of PGES activity; cited from earlier work.

Assay [6] deals with Ishikawa cells. Briefly: Total inositol phosphate (InsP) assay in Ishikawa cells. The class given is cell-based, human. To be noted: PGF2α 100 nM. Here is the method: as §1
The test system of assay [7] is Ishikawa cells. Briefly: PGF2α-induced ERK phosphorylation in Ishikawa cells. It counts as cell-based, human. To be noted: 100 nM, 10 min. Here is the method: PGF2α-induced ERK phosphorylation in Ishikawa cells. PGF2α 100 nM was incubated for 10 and 30 min. U73122 2 μM was pre-incubated for 60 min before treatment with PGF2α.
The subject of a further assay is HCT-8. To be noted: HCT-8 human colon adenocarcinoma cell line; cited from earlier work.
The test system of a further assay is HT-29. To be noted: HT-29 human colon adenocarcinoma cell line; cited from earlier work.

Entries after “also recorded” stand apart in the source; their conditions may differ.

Sequence of prostaglandin receptor EP2 (P43116 whole entry): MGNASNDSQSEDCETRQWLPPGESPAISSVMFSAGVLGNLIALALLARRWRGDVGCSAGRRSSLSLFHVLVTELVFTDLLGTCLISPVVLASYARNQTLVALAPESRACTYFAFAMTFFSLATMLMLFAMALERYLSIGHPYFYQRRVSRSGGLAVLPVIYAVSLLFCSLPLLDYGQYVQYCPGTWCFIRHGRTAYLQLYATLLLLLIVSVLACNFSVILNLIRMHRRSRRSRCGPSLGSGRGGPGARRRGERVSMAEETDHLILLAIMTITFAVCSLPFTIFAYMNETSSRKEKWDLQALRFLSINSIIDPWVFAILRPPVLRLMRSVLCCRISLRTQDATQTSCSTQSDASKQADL

In the case of `CCCCC(F)[C@H](O)/C=C/[C@H]1CC[C@H](O)[C@@H]1C/C=C\CCCC(=O)O` (stereo partly drawn) [AL-3138, 11-deoxy-16-fluoro PGF2α], in the assay on FP receptor, the “FP (PGF2α) receptor agonist activity, in words” value was “weak partial agonist; also recorded: partial agonist of low efficacy” and the “FP (PGF2α) receptor antagonist activity, in words” value is “highly selective antagonist”.
Take `O=C(O)CCC/C=C\C[C@@H]1[C@@H](/C=C/[C@H](O)C2Cc3ccccc3C2)[C@@H](F)C[C@@H]1O` [AL-8810, (5Z, 13E)-(9S,11S,15R)-9,15-dihydroxy-11-fluoro-15-(2-indanyl)-16, 17, 18, 19, 20-pentanor-5,13-prostadienoic acid]: in assay [1], the “inhibition of functional responses of TP receptor” value is “not to significantly inhibit”. In addition, the “inhibition of functional responses of DP receptor” value in assay [2] was “not to significantly inhibit”. Besides, the “inhibition of functional responses of EP2 receptor” value in [3] is listed as “not to significantly inhibit”. Besides, the “inhibition of functional responses of EP4 receptor” value in [4] is “not to significantly inhibit”. In addition, in the assay with FP receptor, the “FP (PGF2α) receptor agonist activity, in words” value was “weak partial agonist” and the “FP (PGF2α) receptor antagonist activity, in words” value was “highly selective antagonist; also recorded: micromolar potency”.
In the case of `COc1cccc(-c2cc(=O)c3ccccc3o2)c1N` [PD98059], in the assay on Ishikawa cells [5] (PD98059 50 μM pre-treatment), the “basal proliferation (BrdU incorporation)” value is given as 84.0±5.8%.
`COc1ccc2c(c1)CC[C@@H]1[C@@H]2CC[C@]2(C)[C@@H](NCCCCCCN3C(=O)C=CC3=O)CC[C@@H]12` [U73122]: the “effect on PGF2α-induced InsP mobilisation” value in the assay on human endometrium (pre-treatment with U73122 2 μM, PGF2α 100 nM) is “inhibited”. The “basal proliferation (BrdU incorporation)” value in the assay on Ishikawa cells [5] (U73122 2 μM pre-incubation) worked out at 93.9±1.9%.
Take `CCCCC/C=C\C\C=C/C=C/C=C/[C@@H](SC[C@H](NC(=O)CC[C@H](N)C(=O)O)C(=O)NCC(=O)O)[C@@H](O)CCCC(=O)O` [leukotriene C4]: at PGES, the half-maximal inhibitory concentration (IC50) is 5 µM.
In the case of `CSc1ccc(/C=C2/C(C)=C(CC(=O)O)c3cc(F)ccc32)cc1` [sulindac sulphide], at PGES, the IC50 was 80 µM.
As for `Cc1ccc(S(=O)(=O)NC(=O)NN2CCCCCC2)cc1` [tolazamide], the “FP (PGF2α) receptor antagonist activity, in words” value in the assay on FP receptor is reported as “very weak antagonists”.
With `CCCCNC(=O)NS(=O)(=O)c1ccc(C)cc1` [tolbutamide], in the assay with FP receptor, the “FP (PGF2α) receptor antagonist activity, in words” value is “very weak antagonists”.
With prostaglandin F2α [PGF2α], in the assay with human endometrium, the “concentration giving maximal InsP mobilisation” value is reported as 100 nM and the “total InsP production following treatment” value is listed as “concentration-dependent increase”. The “maximum total InsP” value in the assay with Ishikawa cells [6] was determined as 29 cpm/mg protein. Further, the “increase in phosphorylated ERK intensity compared to native ERK” value in the assay with Ishikawa cells [7] stood at 6.6±0.7 fold. Also, the “BrdU incorporation (percentage of untreated cells)” value in the assay with Ishikawa cells [5] (PGF2α 100 nM (maximal), 24 h, Ishikawa cells) was 136.3±7.48%. For the same molecule, the proliferation entry in the assay with HCT-8 is on record as “lack of proliferation”. The proliferation entry in the assay with HT-29 was “lack of proliferation”.

What is called IC50 is the concentration that inhibits the measured activity by half.

The values above are taken from patent US20060166872A1, “Fp receptor antagonists or pgf2 alpha antagonists for treating menorrhagia” (priority 2002, published 2006).
